{"source": "patent US9988371B2", "about": "“Benzimidazole analogues and related methods” (The Arizona Board of Regents, on Behalf of the University …, priority 2014, dated 2018)", "key": {"RET wild type": {"target": "T1, RET wild type (Homo sapiens, UniProt P07949)", "T1 construct": "purchased Invitrogen", "T1 sequence (P07949 724-1016 limits assumed)": "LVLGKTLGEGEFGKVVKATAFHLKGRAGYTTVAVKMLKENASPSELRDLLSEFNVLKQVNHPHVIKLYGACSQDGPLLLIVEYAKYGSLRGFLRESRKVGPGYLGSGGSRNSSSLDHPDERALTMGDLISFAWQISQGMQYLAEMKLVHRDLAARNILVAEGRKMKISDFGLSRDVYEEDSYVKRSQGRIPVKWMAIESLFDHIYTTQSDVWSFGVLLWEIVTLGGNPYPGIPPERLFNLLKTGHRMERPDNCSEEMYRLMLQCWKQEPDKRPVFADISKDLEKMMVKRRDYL", "assay": "RET biochemical assay (EZ Reader mobility shift)", "conditions": "30 min pre-incubation, 200 μM ATP, exact potency beyond measurable limit", "protocol": "Suitable screening assays for RET and VEGFR2 small molecule kinase inhibitors (from a kinase-directed fragment (KDF) library) were established. The RET kinase assay utilizes an EZ Reader Electrophoresis Mobility Chip Instrument (Caliper Life Science). In the assay, 2 nM recombinant RET enzyme (Invitrogen) is pre-incubated with a small molecule inhibitor or control buffer for 30 min to allow the Type-II kinase inhibitor to trap the DFG-out conformation to which the inhibitors bind. This class of inhibitors is indirectly competitive with ATP, and slow binding kinetics (low kd) allow the inhibitors to appear non-competitive and pseudo-irreversible in nature. Because of the non-competitive nature of these inhibitors, a more biologically relevant concentration of ATP substrate (200 μM) was incorporated in this assay. After 30 min of pre-incubation, a substrate mix containing […], 20 mM MgCl2 and 1.5 μM fluorescently labeled RET substrate peptide (Caliper LS, peptide 22; Perkin Elmer, USA) was added. The conversion level of the RET substrate peptide was then determined utilizing the EZ Reader instrument. […]\nThe RET kinase assay utilizes a microfluidics based instrument for direct kinase activity readout (Caliper Life Science). […] The conversion level of the RET substrate peptide was determined utilizing the EZ Reader instrument. […]"}, "[1]": {"target": "gatekeeper mutant RETV804M (Homo sapiens, UniProt P07949, V804M)", "sequence (P07949 29-1114 V804M)": "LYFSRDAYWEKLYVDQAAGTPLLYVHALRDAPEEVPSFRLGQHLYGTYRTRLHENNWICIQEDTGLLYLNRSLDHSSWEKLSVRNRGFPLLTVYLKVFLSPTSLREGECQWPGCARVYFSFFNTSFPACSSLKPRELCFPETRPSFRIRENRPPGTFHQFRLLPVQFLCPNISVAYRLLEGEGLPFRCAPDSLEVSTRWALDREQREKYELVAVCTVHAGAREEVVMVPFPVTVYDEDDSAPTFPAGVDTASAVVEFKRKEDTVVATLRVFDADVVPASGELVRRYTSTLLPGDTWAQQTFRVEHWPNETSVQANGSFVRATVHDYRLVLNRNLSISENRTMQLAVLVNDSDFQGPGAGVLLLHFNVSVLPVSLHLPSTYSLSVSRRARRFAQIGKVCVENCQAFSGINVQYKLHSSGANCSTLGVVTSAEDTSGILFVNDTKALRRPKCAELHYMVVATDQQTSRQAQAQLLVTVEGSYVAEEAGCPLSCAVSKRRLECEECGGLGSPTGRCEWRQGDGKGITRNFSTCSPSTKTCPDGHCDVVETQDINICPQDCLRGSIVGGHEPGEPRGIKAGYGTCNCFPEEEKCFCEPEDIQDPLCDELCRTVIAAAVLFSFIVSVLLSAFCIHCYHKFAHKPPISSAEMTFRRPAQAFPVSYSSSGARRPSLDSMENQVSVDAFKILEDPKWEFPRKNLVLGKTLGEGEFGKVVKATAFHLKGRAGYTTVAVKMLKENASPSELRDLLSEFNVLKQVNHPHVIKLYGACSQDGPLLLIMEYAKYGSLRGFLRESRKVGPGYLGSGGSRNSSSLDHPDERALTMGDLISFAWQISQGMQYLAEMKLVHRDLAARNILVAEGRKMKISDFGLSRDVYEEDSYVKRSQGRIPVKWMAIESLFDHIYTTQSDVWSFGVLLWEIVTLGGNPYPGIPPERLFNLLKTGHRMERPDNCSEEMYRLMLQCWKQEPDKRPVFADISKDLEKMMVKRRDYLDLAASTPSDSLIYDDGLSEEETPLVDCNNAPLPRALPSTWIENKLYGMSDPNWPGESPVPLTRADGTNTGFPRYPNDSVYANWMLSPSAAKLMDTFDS", "assay": "RET/V804M kinase assay", "conditions": "biochemical assay; exact potency beyond measurable limit", "protocol": "(§1) Suitable screening assays for RET and VEGFR2 small molecule kinase inhibitors (from a kinase-directed fragment (KDF) library) were established. The RET kinase assay utilizes an EZ Reader Electrophoresis Mobility Chip Instrument (Caliper Life Science). In the assay, 2 nM recombinant RET enzyme (Invitrogen) is pre-incubated with a small molecule inhibitor or control buffer for 30 min to allow the Type-II kinase inhibitor to trap the DFG-out conformation to which the inhibitors bind. This class of inhibitors is indirectly competitive with ATP, and slow binding kinetics (low kd) allow the inhibitors to appear non-competitive and pseudo-irreversible in nature. Because of the non-competitive nature of these inhibitors, a more biologically relevant concentration of ATP substrate (200 μM) was incorporated in this assay. After 30 min of pre-incubation, a substrate mix containing […], 20 mM MgCl2 and 1.5 μM fluorescently labeled RET substrate peptide (Caliper LS, peptide 22; Perkin Elmer, USA) was added. The conversion level of the RET substrate peptide was then determined utilizing the EZ Reader instrument. Similarly, VEGFR2 and RET/V804M kinase assays have also been established using the same peptide substrate."}, "VEGFR2": {"target": "VEGFR2 (Homo sapiens, UniProt P35968)", "sequence (P35968 834-1162 limits assumed)": "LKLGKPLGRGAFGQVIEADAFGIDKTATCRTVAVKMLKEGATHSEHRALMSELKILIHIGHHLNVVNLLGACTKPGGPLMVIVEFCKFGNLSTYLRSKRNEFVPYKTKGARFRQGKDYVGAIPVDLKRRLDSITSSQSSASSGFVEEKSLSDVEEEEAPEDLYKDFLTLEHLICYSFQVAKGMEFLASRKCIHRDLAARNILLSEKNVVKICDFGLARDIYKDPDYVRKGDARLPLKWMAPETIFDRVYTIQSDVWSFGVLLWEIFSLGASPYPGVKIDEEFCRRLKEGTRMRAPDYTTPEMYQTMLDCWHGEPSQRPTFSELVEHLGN", "assay": "VEGFR2 biochemical assay", "conditions": "exact potency beyond measurable limit", "protocol": "as §1\nThe VEGFR-2 assay was identical to the RET assay except that 1-2 nM recombinant VEGFR-2 was used instead of RET."}, "TT cells xenografted": {"system": "TT cells xenografted", "assay": "TT cell xenograft in SCID mice", "format": "in vivo", "conditions": "0.3, 1.0, or 3.0 mg/kg daily, oral gavage, 28 days; all tested doses", "excerpt": "FIG. 7: Anti-tumorigenic activity of Pz-1 on TT cells xenografted into SCID mice. […] Average volumes of tumors are reported±SD (standard deviation). TT cells (7.5×10^6/mouse) were inoculated subcutaneously into dorsal portions (both sides) of 39 female SCID mice (Jackson Laboratories, Bar Harbor, Me.). After 5 weeks, at least one tumour was present in each mouse and a total of 70 tumours were visible: 56 tumours were 40-150 mm^3 and 14 tumours were <40 mm^3. […] Tumor-bearing animals were randomly assigned to receive Pz-1 (0.3, 1.0, or 3.0 mg/kg, daily) (29 mice, 52 tumours) or vehicle (10 mice, 18 tumours) by oral gavage. Treatment was administered for 28 consecutive days. Tumor diameters were measured with calipers every week. Tumor volumes (V) were calculated by the rotational ellipsoid formula: V=A×B^2/2 (A=axial diameter; B=rotational diameter) and reported as average volumes±standard deviations. […]\nTT cells (7.5×10^6/mouse) were inoculated subcutaneously into dorsal portions (both sides) of 39 SCID mice (Jackson Laboratories, Bar Harbor, Me.). […] Tumor diameters were measured with callipers every week. Tumor volumes (V) were calculated by the rotational ellipsoid formula: V=A×B^2/2 (A=axial diameter; B=rotational diameter) and reported as average volumes±standard deviations. […] Tumor diameters were measured with calipers every 1-2 days. […]"}}, "data": [{"smiles": "Cn1cc(-c2ccc3c(c2)ncn3-c2ccc(CC(=O)Nc3cc(C(C)(C)C)on3)cc2)cn1", "note": "[Pz-1, N-(5-(tert-butyl)isoxazol-3-yl)-2-(4-(5-(1-methyl-1H-pyrazol-4-yl)-1H-benzo[d]imidazol-1-yl)phenyl)acetamide]", "values": [{"measurement": "IC50", "setting": "RET wild type", "value": "< 1", "unit": "nM"}, {"measurement": "IC50", "setting": "[1]", "value": "< 1", "unit": "nM"}, {"measurement": "IC50", "setting": "VEGFR2", "value": "< 1", "unit": "nM"}, {"measurement": "tumor growth", "setting": "TT cells xenografted", "value": "strongly inhibited tumor growth"}]}]}
